This is an account of results in patent US9771333B2, “Quinazoline derivatives as TAM family kinase inhibitors” (SIGNALCHEM LIFESCIENCES CORP., priority 2013, dated 2017).

What all share (assay type): biochemical
One assay concerns the target T1, human Tyro3 (Homo sapiens, UniProt Q06418).
T1 construct: GST (N); made in house; host or cells: Sf9 insect cells (baculovirus)
T1 sequence (Q06418 455-890 limits assumed): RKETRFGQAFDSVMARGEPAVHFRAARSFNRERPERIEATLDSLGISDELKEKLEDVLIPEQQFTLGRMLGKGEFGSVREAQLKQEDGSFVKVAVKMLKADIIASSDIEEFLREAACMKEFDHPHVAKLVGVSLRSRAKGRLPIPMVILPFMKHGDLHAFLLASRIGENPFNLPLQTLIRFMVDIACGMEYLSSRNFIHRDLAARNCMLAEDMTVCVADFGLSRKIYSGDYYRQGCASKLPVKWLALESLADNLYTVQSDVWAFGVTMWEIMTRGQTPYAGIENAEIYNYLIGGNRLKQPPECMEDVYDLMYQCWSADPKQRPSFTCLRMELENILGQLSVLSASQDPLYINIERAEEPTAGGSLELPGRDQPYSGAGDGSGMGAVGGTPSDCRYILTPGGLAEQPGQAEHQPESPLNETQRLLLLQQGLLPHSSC
Nature of the assay: Kinase enzymatic activity assay (33P-radiolabeled phosphate transfer), Tyro3. To be noted: recombinant human Tyro3 (455-end), poly(4:1 glu:tyr) substrate, 30 minutes. The source says:
(§1) The identification of compounds of the invention as Tyro3, Axl or Mer inhibitors was readily accomplished using the recombinant human Tyro3, Axl and Mer proteins and employing the ^33P-radiolabeled phosphate transfer assay for which the procedure is known to someone skilled in the art or as described in Example 9.
(§2) Recombinant human Tyro3 (455-end, the gene accession number NM_006293), human Axl (473-end, the gene accession number NM_021913) and human Mer (578-872, the gene accession number NM_006343) were independently expressed by baculovirus in Sf9 insect cells using an N-terminal GST tag. The recombinant proteins were stored at −70° C. in a medium containing 50 mM Tris-HCl, pH 7.5, 150 mM NaCl, 10 mM glutathione, 0.1 mM EDTA, 0.25 mM DTT, 0.1 mM PMSF and 25% glycerol. The recombinant proteins were aliquoted into smaller quantities after centrifugation to avoid repeated handling and multiple freeze/thaw cycles for the most favorable performance.
(§3) Kinase Assay Buffer: This buffer solution consisted of the following components: 25 mM MOPS, pH 7.2, 12.5 mM β-glycerol-phosphate, 25 mM MgCl2, 5 mM EGTA, 2 mM EDTA and DTT 0.25 mM which was added prior to use.
(§4) Kinase Dilution Buffer: Kinase Assay Buffer was diluted at a 1:4 ratio (5× dilution) with distilled water.
(§5) [^33P]-ATP assay cocktail: In a designated radioactive working area, a 250 μM [^33P]-ATP assay cocktail was prepared by the addition of the following components: 150 μL of 10 mM ATP stock solution, 100 μL [^33P]-ATP (1 mci/100 μL), and 5.75 mL of kinase assay buffer. This solution was stored in 1 mL aliquots at −20° C.
(§6) ATP stock solution (10 mM): The ATP stock solution was prepared by dissolving 55 mg of ATP in 10 mL of kinase assay buffer. It was stored in 200 μL aliquots at −20° C.
(§7) Active Kinase Stock Solution: The active recombinant kinase protein (0.1 μg/μL) was diluted with Kinase Dilution Buffer and the activity was assayed using a serial dilution method. The specific activity is expressed in nmoL/min/mg.
(§8) Substrates: poly(4:1 glu:tyr) is the substrate used for each kinase Tyro3, Axl and Mer: The peptide substrate was dissolved in water to give the final concentration of 1 mg/mL.
(§9) Test compound solution: Test compound was dissolved in DMSO to obtain a 10 mM solution. The assay solution was prepared by adding 5 μL of this solution to […] of 10% DMSO/water to obtain the final concentration of 50 μM.
(§10) The enzymatic activity of all three kinases was determined as follows. Using a 96-well plate, the wells were divided into three categories: Blank wells, […] and Test wells. In Test wells, 5 μL of the test compound solution and 5 μL of the substrate solution were added. In Control wells, 5 μL of 10% DMSO/water and 5 μL of the substrate solution were added. In Blank wells, 10 μL of 10% DMSO/water was added. To each well was added 10 μL of Active Kinase Stock Solution to make up the volume in each well to 20 μL. All test samples, controls and blanks were run in duplicate. The reaction was initiated by the addition of 5 μL of [^33P]-ATP assay cocktail, bringing the final volume up to 25 μL in every well. The mixture was incubated at room temperature for 30 minutes. The reaction was terminated by transferring 10 μL of the reaction mixture into a Millipore MultiScreen filter plate (cat. number MSPHN6B50). The filter plate was washed in a 1% phosphoric acid solution with constant gentle shaking for 15 minutes and this step was repeated once. After the plate was dried in air, scintillation fluid was added to each well and the radioactivity in each well in CPM was counted by a Microbeta TriLux. The corrected CPM in each test well was determined by subtracting the average value of Blank well values. Percentage of inhibition of the kinase enzymatic activity by the test compound was determined using the following formula: […]
(§11) The IC50 values were determined in a similar way following a serial dilution of the test compound. […]

The target in another assay is T2, human Mer (Homo sapiens, UniProt Q12866).
T2 construct: GST (N); made in house; host or cells: Sf9 insect cells (baculovirus)
T2 sequence (Q12866 578-872): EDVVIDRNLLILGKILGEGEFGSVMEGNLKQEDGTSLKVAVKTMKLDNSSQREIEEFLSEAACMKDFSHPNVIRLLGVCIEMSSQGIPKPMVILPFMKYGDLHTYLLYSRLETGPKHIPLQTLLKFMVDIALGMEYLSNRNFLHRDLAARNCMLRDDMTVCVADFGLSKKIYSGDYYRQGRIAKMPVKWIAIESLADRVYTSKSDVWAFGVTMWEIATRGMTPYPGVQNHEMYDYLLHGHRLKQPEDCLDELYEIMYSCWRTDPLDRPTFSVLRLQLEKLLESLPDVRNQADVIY
Put plainly: Kinase enzymatic activity assay (33P-radiolabeled phosphate transfer), Mer. To be noted: recombinant human Mer (578-872), poly(4:1 glu:tyr) substrate, 30 minutes.
Description: as §1, §2, §3, §4, §5, §6, §7, §8, §9, §10, §11

Another assay deals with T3, human Axl (Homo sapiens, UniProt P30530).
T3 construct: GST (N); made in house; host or cells: Sf9 insect cells (baculovirus)
T3 sequence (P30530 473-894 limits assumed): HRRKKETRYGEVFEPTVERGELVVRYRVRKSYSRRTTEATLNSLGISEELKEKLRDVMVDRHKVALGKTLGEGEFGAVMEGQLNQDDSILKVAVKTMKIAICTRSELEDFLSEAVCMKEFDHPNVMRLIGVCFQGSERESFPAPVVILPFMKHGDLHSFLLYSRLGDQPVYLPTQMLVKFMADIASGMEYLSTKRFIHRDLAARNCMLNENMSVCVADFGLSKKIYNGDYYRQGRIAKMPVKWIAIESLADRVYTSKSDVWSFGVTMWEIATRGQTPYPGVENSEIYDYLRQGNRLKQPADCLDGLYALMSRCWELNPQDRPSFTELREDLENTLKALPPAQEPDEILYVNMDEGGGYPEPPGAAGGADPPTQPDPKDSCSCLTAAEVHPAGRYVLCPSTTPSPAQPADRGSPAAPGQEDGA
Put plainly: Kinase enzymatic activity assay (33P-radiolabeled phosphate transfer), Axl. To be noted: recombinant human Axl (473-end), poly(4:1 glu:tyr) substrate, 30 minutes.
Description: as §1, §2, §3, §4, §5, §6, §7, §8, §9, §10, §11

A word on the IC50: it is the concentration at which inhibition is half-maximal. As to `COc1ncnc2cc(OCCOCCN(C)C)cc(OC3CCOCC3)c12` [Example 2.16, 2-(2-((4-methoxy-5-((tetrahydro-2H-pyran-4-yl)oxy)quinazolin-7-yl)oxy)ethoxy)-N,N-dimethylethanamine], the IC50 is 1 to 10 µM on human Tyro3, greater than 10 µM on human Mer and less than 0.5 µM on human Axl.

For the compound `COc1cc(OCCCN2CCOCC2)cc2ncnc(Oc3ccc(F)cc3Cl)c12` [Example 2.17, 4-(3-((4-(2-chloro-4-fluorophenoxy)-5-methoxyquinazolin-7-yl)oxy)propyl)morpholine], the IC50 was less than 0.5 µM at human Tyro3, 1 to 10 µM on human Mer and 1 to 10 µM on human Axl.

Take `FC(F)(F)c1csc(Nc2ncnc3cc(OCCCN4CCOCC4)cc(OC4CCOCC4)c23)n1` [Example 2.18, N-(7-(3-morpholinopropoxy)-5-((tetrahydro-2H-pyran-4-yl)oxy)quinazolin-4-yl)-4-(trifluoromethyl)thiazol-2-amine]: the concentration for half-maximal inhibition (IC50) at human Tyro3 was greater than 10 µM; at human Mer it was 1 to 10 µM; on human Axl, 0.5 to 1 µM.

As for `c1nc(Nc2nncs2)c2c(OC3CCOCC3)cc(OCCCN3CCOCC3)cc2n1` [Example 2.19, N-(7-(3-morpholinopropoxy)-5-((tetrahydro-2H-pyran-4-yl)oxy)quinazolin-4-yl)-1,3,4-thiadiazol-2-amine], the IC50 was 1 to 10 µM at human Tyro3, 1 to 10 µM on human Mer and less than 0.5 µM at human Axl.

Consider `Cc1nnc(Nc2ncnc3cc(OCCCN4CCOCC4)cc(OC4CCOCC4)c23)s1` [Example 2.20, 5-methyl-N-(7-(3-morpholinopropoxy)-5-((tetrahydro-2H-pyran-4-yl)oxy)quinazolin-4-yl)-1,3,4-thiadiazol-2-amine], for which the IC50 is greater than 10 µM at human Tyro3, 1 to 10 µM on human Mer and 1 to 10 µM on human Axl.

For the compound `c1csc(Nc2ncnc3cc(OCCCN4CCOCC4)cc(OC4CCOCC4)c23)n1` [Example 2.21, N-(7-(3-morpholinopropoxy)-5-((tetrahydro-2H-pyran-4-yl)oxy)quinazolin-4-yl)thiazol-2-amine], the IC50 is 1 to 10 µM on human Tyro3, less than 0.5 µM at human Mer and less than 0.5 µM at human Axl.

With `FC(F)(F)c1nnc(Nc2ncnc3cc(OCCCN4CCOCC4)cc(OC4CCOCC4)c23)s1` [Example 2.22, N-(7-(3-morpholinopropoxy)-5-((tetrahydro-2H-pyran-4-yl)oxy)quinazolin-4-yl)-5-(trifluoromethyl)-1,3,4-thiadiazol-2-amine], the IC50 was greater than 10 µM at human Tyro3, greater than 10 µM on human Mer and 1 to 10 µM on human Axl.

Consider `CN1CCC(COc2cc(OC3CCOCC3)c3c(Nc4nc(C(F)(F)F)cs4)ncnc3c2)CC1` [Example 2.23, N-(7-((1-methylpiperidin-4-yl)methoxy)-5-((tetrahydro-2H-pyran-4-yl)oxy)quinazolin-4-yl)-4-(trifluoromethyl)thiazol-2-amine], for which the IC50 on human Tyro3 is greater than 10 µM; at human Mer it was greater than 10 µM; on human Axl, less than 0.5 µM.

With `COc1cc(N2CCOCC2)cc2ncnc(Nc3nc(C(F)(F)F)cs3)c12` [Example 2.24, N-(5-methoxy-7-morpholinoquinazolin-4-yl)-4-(trifluoromethyl)thiazol-2-amine], the figures for the IC50 at human Tyro3, at human Mer and at human Axl were greater than 10 µM, greater than 10 µM and 1 to 10 µM, respectively.

Take `COc1cc(N2CCN(C)CC2)cc2ncnc(Nc3nc(C(F)(F)F)cs3)c12` [Example 2.25, N-(5-methoxy-7-(4-methylpiperazin-1-yl)quinazolin-4-yl)-4-(trifluoromethyl)thiazol-2-amine]: the values for the IC50 at human Tyro3, on human Mer and at human Axl were greater than 10 µM, greater than 10 µM and 0.5 to 1 µM, respectively.

With `COC(=O)c1cccc(Oc2ncnc3cc(OCCCN4CCOCC4)cc(OC)c23)c1` [Example 2.26, methyl 3-((5-methoxy-7-(3-morpholinopropoxy)quinazolin-4-yl)oxy)benzoate], the IC50 on human Tyro3 was 1 to 10 µM; on human Mer, greater than 10 µM; on human Axl, greater than 10 µM.

Take `COC(=O)Cc1cccc(Oc2ncnc3cc(OCCCN4CCOCC4)cc(OC)c23)c1` [Example 2.27, methyl 2-(3-((5-methoxy-7-(3-morpholinopropoxy)quinazolin-4-yl)oxy)phenyl)acetate]: the IC50 was 1 to 10 µM at human Tyro3, 1 to 10 µM at human Mer and greater than 10 µM on human Axl.

Regarding `COc1cc(OCCCN2CCOCC2)cc2ncnc(Oc3cccc(C(=O)NCc4ccccc4)c3)c12` [Example 2.28, N-benzyl-3-((5-methoxy-7-(3-morpholinopropoxy)quinazolin-4-yl)oxy)benzamide], the IC50 on human Tyro3, on human Mer and on human Axl was greater than 10 µM throughout.

For the compound `COc1cc(OCCCN2CCOCC2)cc2ncnc(Oc3cccc(CC(=O)NCc4ccccc4)c3)c12` [Example 2.29, N-benzyl-2-(3-((5-methoxy-7-(3-morpholinopropoxy)quinazolin-4-yl)oxy)phenyl)acetamide], the half-inhibitory concentration (IC50) was 1 to 10 µM on human Tyro3, greater than 10 µM at human Mer and greater than 10 µM on human Axl.

For the compound `COC(=O)c1cccc(Oc2ncnc3cc(OCCN4CCN(C)CC4)cc(OC4CCOCC4)c23)c1` [Example 2.30, methyl 3-((7-(2-(4-methylpiperazin-1-yl)ethoxy)-5-((tetrahydro-2H-pyran-4-yl)oxy)quinazolin-4-yl)oxy)benzoate], the results for the IC50 at human Tyro3, on human Mer and at human Axl were 1 to 10 µM, greater than 10 µM and 1 to 10 µM, respectively.
